Data taken from patent publication US20250223268A1, “4-Methylsulfonylbenzamide Compound, Preparation Method, Herbicidal Composition And Use” (Jiangsu Flag Chemical Industry Co., Ltd., priority 2022, published 2025).

Columns and labels:
Assay in all cases: Greenhouse herbicidal activity assay, post-emergence
Assay type in all cases: in vivo
Cyperus iria = conditions: Post-emergence test, rate 150 g a.i./hm^2, grade by fresh weight inhibition rate
From the text: (§1) Post-emergence: Seeds of gramineous weeds (Echinochloa crusgalli, Echinochloa crusgalli var. zelayensis, Echinochloa phyllopogon, Eleusine indica, Digitaria sanguinalis, Leptochloa chinensis, Setaria viridis, Alopecurus japonicus Steud, Beckmannia syzigachne, Polypogon fugax, Alopecurus aequalis, Lolium multiflorum, Poa annua, Aegilops tataschii, Avena fatua, Alopecurus myosuroides, Bromus japonicus), broadleaf weeds (Eclipta prostrata, Amaranthus retroflexus, Rorippa indica, Myosoton aquaticum, Veronica didyma, Galium aparine, Solanum nigrum, Xanthium sibiricum, Conyza canadensis, Sesbania cannabina, Sagittaria trifolia), and Cyperus iria (Cyperus iria, Scirpus juncoides, Cyperus difformis, etc.) were sown in plastic pots (7 cm diameter) with nutrient soil and bottom holes. Crop seeds (including Oryza sativa subsp. indica, Oryza sativa subsp. japonica, Oryza sativa L. var. Glutinosa matsum, Triticum aestivum, Zea mays, Sorghum bicolor, Setaria italica, Glycine max, Gossypium hirsutum, Brassica napus, Arachis hypogaea) were sown in plastic pots (10 cm diameter) with nutrient soil and bottom holes. After sowing, the pots were placed in the growth chamber until the plants reached the 3-6 leaf stage for foliar spraying. Post-treatment, the materials were air-dried naturally and returned to the growth chamber. Results were assessed 14-21 days later.
(§2) • A: Fresh weight inhibition rate≥80% to 100%; • B: Fresh weight inhibition rate[…] to <80%; • C: Fresh weight inhibition rate≥40% to <60%; • D: Fresh weight inhibition rate≥20% to <40%; • E: Fresh weight inhibition rate<20%; • NT: Not tested.

Leptochloa chinensis = conditions: Post-emergence test, rate 150 g a.i./hm^2, grade by fresh weight inhibition rate
From the text: as §1, §2

Eclipta prostrata = conditions: Post-emergence test, rate 150 g a.i./hm^2; grade by fresh weight inhibition rate
From the text: as §1, §2

Echinochloa crusgalli = conditions: Post-emergence test, rate 150 g a.i./hm^2, grade by fresh weight inhibition rate; for pest or weed control at 150 g/ha: Echinochloa crus-galli, read-out: Control efficacy grade, Echinochloa crusgalli
From the text: as §1, §2

SMILES | Control efficacy grade, Cyperus iria (Cyperus iria) | Control efficacy grade, Leptochloa chinensis (Leptochloa chinensis) | Control efficacy grade, Eclipta prostrata (Eclipta prostrata) | Control efficacy grade, Echinochloa crusgalli (Echinochloa crusgalli) | pest or weed control at 150 g/ha (Cyperus iria; Cyperus iria, read-out: Control efficacy grade, Cyperus iria) [%] | pest or weed control at 150 g/ha (Echinochloa crusgalli) [%] | pest or weed control at 150 g/ha (Leptochloa chinensis; Dinebra chinensis, read-out: Control efficacy grade, Leptochloa chinensis) [%]
CCC(C)[S+]([O-])c1c(S(C)(=O)=O)ccc(C(=O)Nc2nnc(C(C)C)o2)c1Cl (mixture of isomers) [Compound 3-517] | B (Fresh weight inhibition rate≥260% to <80%) | A (Fresh weight inhibition rate≥80% to 100%) | A (Fresh weight inhibition rate≥80% to 100%) | – | – | – | –
CCC(C)[S+]([O-])c1c(S(C)(=O)=O)ccc(C(=O)N(C)c2nnc(C)o2)c1Cl (mixture of isomers) [Compound 3-820] | – | – | – | A (Fresh weight inhibition rate≥80% to 100%) | – | – | –
CCC(C)[S+]([O-])c1c(S(C)(=O)=O)ccc(C(=O)Nc2nonc2C)c1Cl (mixture of isomers) [Compound 4-19] | A (Fresh weight inhibition rate≥80% to 100%) | A (Fresh weight inhibition rate≥80% to 100%) | A (Fresh weight inhibition rate≥80% to 100%) | – | – | – | –
CCC(C)Sc1c(S(C)(=O)=O)ccc(C(=O)Nc2nnnn2C)c1Cl (racemic) [Compound 1-16] | B (Fresh weight inhibition rate≥260% to <80%) | A (Fresh weight inhibition rate≥80% to 100%) | A (Fresh weight inhibition rate≥80% to 100%) | A (Fresh weight inhibition rate≥80% to 100%) | – | – | –
Cn1nnnc1NC(=O)c1ccc(S(C)(=O)=O)c([S+]([O-])C2CCCC2)c1Cl (racemic) [Compound 1-43] | A (Fresh weight inhibition rate≥80% to 100%) | A (Fresh weight inhibition rate≥80% to 100%) | A (Fresh weight inhibition rate≥80% to 100%) | A (Fresh weight inhibition rate≥80% to 100%) | – | – | –
CCC[S+]([O-])c1c(S(C)(=O)=O)ccc(C(=O)N(C)c2nnnn2C)c1Cl (racemic) [Compound 1-98] | A (Fresh weight inhibition rate≥80% to 100%) | A (Fresh weight inhibition rate≥80% to 100%) | – | A (Fresh weight inhibition rate≥80% to 100%) | – | – | –
CCC(C)Sc1c(S(C)(=O)=O)ccc(C(=O)Nc2ncnn2C)c1Cl (racemic) [Compound 2-16] | A (Fresh weight inhibition rate≥80% to 100%) | A (Fresh weight inhibition rate≥80% to 100%) | A (Fresh weight inhibition rate≥80% to 100%) | – | – | – | –
CCC[S+]([O-])c1c(S(C)(=O)=O)ccc(C(=O)N(C)c2ncnn2C)c1Cl (racemic) [Compound 2-78] | – | – | – | A (Fresh weight inhibition rate≥80% to 100%) | – | – | –
Cc1nnc(NC(=O)c2ccc(S(C)(=O)=O)c([S+]([O-])CCC#N)c2Cl)o1 (racemic) [Compound 3-198] | A (Fresh weight inhibition rate≥80% to 100%) | A (Fresh weight inhibition rate≥80% to 100%) | A (Fresh weight inhibition rate≥80% to 100%) | – | – | – | –
CCc1nnc(NC(=O)c2ccc(S(C)(=O)=O)c(SC(C)CC)c2Cl)o1 (racemic) [Compound 3-398] | A (Fresh weight inhibition rate≥80% to 100%) | A (Fresh weight inhibition rate≥80% to 100%) | – | B (Fresh weight inhibition rate≥260% to <80%) | – | – | –
CC(C)c1nnc(NC(=O)c2ccc(S(C)(=O)=O)c([S+]([O-])C(C)C)c2Cl)o1 (racemic) [Compound 3-505] | A (Fresh weight inhibition rate≥80% to 100%) | A (Fresh weight inhibition rate≥80% to 100%) | A (Fresh weight inhibition rate≥80% to 100%) | – | – | – | –
CC(C)c1nnc(N(C)C(=O)c2ccc(S(C)(=O)=O)c([S+]([O-])C(C)C)c2Cl)o1 (racemic) [Compound 3-808] | – | – | – | B (Fresh weight inhibition rate≥260% to <80%) | – | – | –
CC(C)[S+]([O-])c1c(S(C)(=O)=O)ccc(C(=O)N(C)c2nnc(C3CC3)o2)c1Cl (racemic) [Compound 3-809] | – | – | – | B (Fresh weight inhibition rate≥260% to <80%) | – | – | –
Cc1nnc(N(C)C(=O)c2ccc(S(C)(=O)=O)c([S+]([O-])C3CC3)c2Cl)o1 (racemic) [Compound 3-812] | – | B (Fresh weight inhibition rate≥260% to <80%) | A (Fresh weight inhibition rate≥80% to 100%) | B (Fresh weight inhibition rate≥260% to <80%) | – | – | –
CCc1nnc(N(C)C(=O)c2ccc(S(C)(=O)=O)c([S+]([O-])C3CC3)c2Cl)o1 (racemic) [Compound 3-813] | B (Fresh weight inhibition rate≥260% to <80%) | B (Fresh weight inhibition rate≥260% to <80%) | A (Fresh weight inhibition rate≥80% to 100%) | – | – | – | –
CCCC[S+]([O-])c1c(S(C)(=O)=O)ccc(C(=O)N(C)c2nnc(C)o2)c1Cl (racemic) [Compound 3-815] | – | – | – | B (Fresh weight inhibition rate≥260% to <80%) | – | – | –
Cc1nnc(N(C)C(=O)c2ccc(S(C)(=O)=O)c([S+]([O-])CC(C)C)c2Cl)o1 (racemic) [Compound 3-829] | – | B (Fresh weight inhibition rate≥260% to <80%) | – | A (Fresh weight inhibition rate≥80% to 100%) | – | – | –
Cc1nnc(N(C)C(=O)c2ccc(S(C)(=O)=O)c([S+]([O-])CC(F)(F)F)c2Cl)o1 (racemic) [Compound 3-832] | – | – | – | A (Fresh weight inhibition rate≥80% to 100%) | – | – | –
Cc1nnc(N(C)C(=O)c2ccc(S(C)(=O)=O)c([S+]([O-])CCCl)c2Cl)o1 (racemic) [Compound 3-835] | – | – | – | A (Fresh weight inhibition rate≥80% to 100%) | – | – | –
Cn1nnnc1NC(=O)c1ccc(S(C)(=O)=O)c(SC2CCC2)c1Cl [Compound 1-37] | A (Fresh weight inhibition rate≥80% to 100%) | – | A (Fresh weight inhibition rate≥80% to 100%) | A (Fresh weight inhibition rate≥80% to 100%) | – | – | –
Cn1ncnc1NC(=O)c1ccc(S(C)(=O)=O)c(SC2CCCC2)c1Cl [Compound 2-42] | A (Fresh weight inhibition rate≥80% to 100%) | A (Fresh weight inhibition rate≥80% to 100%) | A (Fresh weight inhibition rate≥80% to 100%) | – | – | – | –
CCCCS(=O)(=O)c1c(S(C)(=O)=O)ccc(C(=O)Nc2nnco2)c1Cl [Compound 3-281] | A (Fresh weight inhibition rate≥80% to 100%) | A (Fresh weight inhibition rate≥80% to 100%) | A (Fresh weight inhibition rate≥80% to 100%) | – | – | – | –
CC(C)CS(=O)(=O)c1c(S(C)(=O)=O)ccc(C(=O)Nc2nnco2)c1Cl [Compound 3-297] | A (Fresh weight inhibition rate≥80% to 100%) | B (Fresh weight inhibition rate≥260% to <80%) | A (Fresh weight inhibition rate≥80% to 100%) | – | – | – | –
CCc1nnc(NC(=O)c2ccc(S(C)(=O)=O)c(SC(C)C)c2Cl)o1 [Compound 3-388, 2-chloro-N-(5-ethyl-1,3,4-oxadiazol-2-yl)-3-(isopropylthio)-4-(methylsulfonyl)benzamide] | – | – | – | – | 80 to 100 | 80 to 100 | 80 to 100
CCc1nnc(NC(=O)c2ccc(S(C)(=O)=O)c(S(=O)(=O)CC(C)C)c2Cl)o1 [Compound 3-413] | A (Fresh weight inhibition rate≥80% to 100%) | A (Fresh weight inhibition rate≥80% to 100%) | A (Fresh weight inhibition rate≥80% to 100%) | – | – | – | –
CC(C)c1nnc(NC(=O)c2ccc(S(C)(=O)=O)c(SC3CC3)c2Cl)o1 [Compound 3-535] | A (Fresh weight inhibition rate≥80% to 100%) | B (Fresh weight inhibition rate≥260% to <80%) | – | B (Fresh weight inhibition rate≥260% to <80%) | – | – | –
C=CCSc1c(S(C)(=O)=O)ccc(C(=O)Nc2nnc(C(C)C)o2)c1Cl [Compound 3-570] | A (Fresh weight inhibition rate≥80% to 100%) | B (Fresh weight inhibition rate≥260% to <80%) | A (Fresh weight inhibition rate≥80% to 100%) | – | – | – | –
CCCSc1c(S(C)(=O)=O)ccc(C(=O)N(C)c2nnc(C)o2)c1Cl [Compound 3-786, 2-chloro-N-methyl-N-(5-methyl-1,3,4-oxadiazol-2-yl)-4-(methylsulfonyl)-3-(propylthio)benzamide] | – | – | – | – | – | 80 to 260 | –
